Entries after “also recorded” stand apart in the source; their conditions may differ.

Data set [1] deals with Chlorella sp. Nature of the data set: Biocide toxicity tests in test tubes, algal optical density at 680 nm (Example 5). It counts as cell-based. Conditions: for mean optical density on day 12 compared with control group: 20 mg/L methoprene, 2% acetone respectively, P>0.05; for mean optical density on day 12 compared with control group / inhibition of algal growth: 2.0 mg/L resmethrin; for inhibition of algal growth: applied without rotifers, experimental concentrations 20 mg/L methoprene, 2% acetone; for mean optical density at day 12 compared with control: printed P>0.5. Here is the method:
27 ml of Chlorella in Alga-Gro Freshwater Medium were added to 300 ml modified Bristol medium and allowed to grow without agitation for 30 hours. The 327 ml of algal solution were then expanded into a total of 700 ml modified Bristol medium and allowed to grow without agitation. After 42 hours, the 700 ml of algal solution were split up into 60 individual test tubes. Each test tube received 10 ml of algal solution, along with 1 ml of rotifer solution (or media) and 4 ml of reagent solution, for a total of 15 ml.
An initial Brachionus sp. population of about 30 individuals was cultured without agitation in one 60-ml jar for 3 days. Then, 1 ml of rotifer solution was pipetted into each of the 40 test tubes designated for rotifer toxicity assessment.
The 60 test tubes represented 12 groups, each with five replicates. The test group names and conditions are as follows (Table 4). The group “20M−R” contained algae, 20 mg/l of methoprene, and no rotifers. The group “20M+R” contained algae, 20 mg/l of methoprene, and rotifers. The group “5M+R” contained algae, 5 mg/l of methoprene, and rotifers. The group “5M+A+R” contained 5 mg/l of methoprene, 2% acetone (v/v), and rotifers. The group “2R−R” contained algae, 2.0 mg/I of resmethrin, and no rotifers. The group “2R+R” contained algae, 2.0 mg/l of resmethrin, and rotifers. The group “5R+R” contained algae, 0.5 mg/l of resmethrin, and rotifers. The group “5R+A+R” contained 0.5 mg/l of resmethrin, 2% acetone, rotifers. The group “A−R” contained algae, 2% acetone and no rotifers. The group “A+R” contained algae, 2% acetone and rotifers. The group “R” contained algae and rotifers without any extra reagents. The group “C” contained algae in media only.
Organisms were cultured and assessed for a test period of 12 days. During the test period, organisms were subjected to agitation at 60 rpm and a photoperiod of 12 hr light, 12 hr dark. The day that organisms were combined into the 60 test tubes was designated as day 0. A 1000-μl sample was removed from each tube for optical density analysis every other day, beginning on day 0. The optical densities of these samples were determined spectrometrically at 680 nm. On days 0, 6, and 12, a 250-μl sample was removed from each of the 1000-μl samples from rotifer-containing groups. Rotifers per 250-μl sample were counted with a dissecting microscope.
The optical densities of each of the 12 groups in the pesticide toxicity tests were averaged and plotted on a time plot (FIGS. 3 & 4). Standard deviation values and average algal growth rates were calculated for each group and day. T-tests were performed to determine the statistical significance of difference between relevant means. A linear regression model was used to compare the optical density averages of the “20M−R” group and the “C” control group. A linear regression of time against optical density in the control group of tubes was compared with a logarithmic regression model of time against optical density in the control flask. (FIG. 5).

The subject of data set [2] is rotifers. To be noted: at concentrations found in this study to be nontoxic to algae; literature findings; cited from earlier work.
Data set [3] has as its system Chlorella sp. Description: 12-day mason jar test, algal optical density at 680 nm, algae without rotifers (Example 1). It counts as cell-based. Conditions: A+M: 30 mg/L methoprene, no rotifers. Here is the method: (§1) Algae were expanded into 500 ml of 20% artificial seawater in mason jars and subjected to five treatment conditions. Five replicates were conducted for each of the conditions. The test conditions were: control (algae only), rotifers without methoprene (A+R), methoprene without rotifers (A+M) methoprene with rotifers (A+R+M), and double concentration methoprene with rotifers (A+R+2M). In the mason jars containing solutions “with rotifers”, 9 mL of media were replaced with rotifer solution. In the A+M and A+R+M groups, the solution was modified to give a methoprene concentration of 30 mg/L. In the A+R+2M group, the solution was modified to give a methoprene concentration of 62 mg/L.
(§2) During the test period, algae was kept on a 12-hour light: 12-hour dark photoperiod at 26.8° C. The pH and specific gravity of the 20% artificial seawater solution were measured to be 8.92±0.02 and 1.013 respectively.
(§3) Optical density measurements were taken on days 5, 6, and 12 after inoculation. Each jar was first agitated either by gently rocking back and forth until minimal algal residue could be seen on the bottom. Occasionally, a sterile tube or pipette was employed to scrape some residue into the solution. Once minimal algal residue remained in the jar, a 5-mL sample of solution was pipetted out with a sterile pipette. The sample's optical density was read with a spectrometer at 680 nm. Control and A+R sample readings were blanked with a solution of 10 mL modified Bristol medium per 40 mL 20% artificial seawater. A+M and A+R+M sample readings were blanked with a solution of 10 mL modified Bristol medium per 38.5 mL 20% artificial seawater and 1.5 mL methoprene-seawater solution. A+R+2M sample readings were blanked with a solution of 10 mL modified Bristol medium per 36.9 mL 20% artificial seawater and 3.1 mL methoprene-seawater solution. Optical density readings were taken in absorbance units.

Data set [4] relates to Brachionus sp. rotifers. Description: 12-day mason jar test, algal optical density at 680 nm, algae with rotifers (Example 1). It counts as in vivo. Here is the method:
as §1, §2, §3

Data set [5] concerns Brachionus plicatilis. Conditions: Marcial et al. (2005), lower concentration of the project is 30 mg/L; cited from earlier work.
For data set [6], the system named is humans or algae. To be noted: background statement; cited from earlier work.
For data set [7], the system named is Brachionus sp. rotifers. Description: Live rotifer count by microscopy in 30-μL samples (Example 1). It counts as in vivo. Conditions: 13 days after inoculation. Here is the method:
One day prior to the general test period, the rotifer concentration was determined. The rotifer concentration of the bottle was estimated by counting rotifers in three trials of 30-μL samples with a Swift microscope at 1.25× magnification. Rotifer concentration was estimated again with the same procedure on the day of inoculation.
12 days after inoculation a 5-mL sample was extracted from each of the 15 jars containing rotifer solution. 24 hours after extraction, these samples were examined with microscopy. From each of the fifteen 5-mL samples, three 30-μL samples were pipetted onto glass slides and the rotifers were counted with a stereoscopic microscope at 2×-4× magnification.

Data set [8] concerns Chlorella sp. Description: Methoprene with acetone added to Chlorella, growth (Example 2). The class given is cell-based. Conditions: methoprene 20 mg/L with acetone 2% v/v. Here is the method: Methoprene at 20 mg/L with acetone at 2% v/v was added to Chlorella sp.
Data set [9] has as its system rotifers. Nature of the data set: Rotifer-infested photobioreactor, methoprene with acetone (Example 3). The class given is in vivo. Conditions: methoprene 30 mg/L or less with acetone between 1 and 27 ml/L; present-tense example. Here is the method:
Methoprene at a concentration of 30 mg/L or less is added to the algal solution in a rotifer-infested photobioreactor. Acetone at a concentration between 1 and 27 ml/L is also added as an adjuvant. At these concentrations, acetone may (while subjecting the algal crop to minimal harm) act as a surfactant, allowing methoprene to become more dissolved. […] Wait approximately 30 days before renewing the media so that methoprene can biodegrade sufficiently before disposal of water.

For data set [10] the following is noted: background statement; cited from earlier work.
Data set [11] concerns Daphnia magna. Nature of the data set: Alpha-pinene/propylene glycol in algal medium, Daphnia control (Example 4). It counts as in vivo. Conditions: approx. 1:1 (w/w) alpha-pinene and propylene glycol, equal to or less than 136 mg/L; present-tense example. Here is the method:
(§4) An approximate 1:1 (w/w) solution of alpha-pinene and propylene glycol is made. Alpha-pinene is the active agent, while propylene glycol is a surfactant. This mixture is added to the algal medium at a concentration equal to or less than 136 mg/L. Daphnia magna and rotofers are controlled in the aquaculture.

Data set [12] deals with rotofers. Description: Alpha-pinene/propylene glycol in algal medium, rotifer control (Example 4). It counts as in vivo. To be noted: approx. 1:1 (w/w) alpha-pinene and propylene glycol, equal to or less than 136 mg/L; present-tense example. Here is the method: as §4

Consider `CC(C)=O` [acetone], for which, in [1], the “mean optical density on day 12 compared with control group” value is “not significantly different” and the “inhibition of algal growth” value is “Neither methoprene, resmethrin, nor acetone, when applied without rotifers, was found to inhibit algal growth; also recorded: not found to inhibit algal growth”.

With `CC(C)=CC1C(C(=O)OCc2coc(Cc3ccccc3)c2)C1(C)C` (stereo not drawn) [resmethrin], the harm to rotifers entry in [2] is “significantly harmful to rotifers”. In data set [1], the “mean optical density on day 12 compared with control group” value is reported as “not significantly different” and the “inhibition of algal growth” value was “Neither methoprene, resmethrin, nor acetone, when applied without rotifers, was found to inhibit algal growth; also recorded: not found to inhibit algal growth”. Besides, the “mean optical density at day 12 compared with control” value in data set [1] (group 2R−R as printed: 2.0 mg/L resmethrin, no rotifers) is reported as “significantly lower”.

On to `COC(C)(C)CCC[C@H](C)C/C=C/C(C)=C/C(=O)OC(C)C` (racemic) [methoprene], for which the “Mean optical density ± one standard deviation” value in data set [3] (5 days after inoculation) is given as 0.84 ± 0.02; in data set [3] (6 days), 0.89 ± 0.01; in data set [3] (12 days), 0.93 ± 0.02; in data set [4] (A+R+2M: 62 mg/L methoprene with rotifers, 5 days), 0.6 ± 0.2; in data set [4] (A+R+2M: 62 mg/L methoprene with rotifers, 6 days) it was 0.7 ± 0.1; in data set [4] (A+R+2M: 62 mg/L methoprene with rotifers, 12 days) it was 0.7 ± 0.2. Further, the “Mean optical density ± one standard deviation” value was 0.6 ± 0.2 in data set [4] (A+R+M: 30 mg/L methoprene with rotifers, 5 days); 0.7 ± 0.2 in data set [4] (A+R+M: 30 mg/L methoprene with rotifers, 6 days); 0.7 ± 0.2 in data set [4] (A+R+M: 30 mg/L methoprene with rotifers, 12 days). Also, the “average specific growth rate of algae” value is listed as 0.0065 log(AU)/day in data set [3] (between 5 and 12 days after inoculation); 0.0078 log(AU)/day in data set [4] (A+R+M: 30 mg/L methoprene with rotifers, between 5 and 12 days after inoculation). Besides, the average optical density amounted to 0.71 AU in data set [4] (double methoprene concentration with rotifers (A+R+2M, 62 mg/L), 12 days) and 0.69 AU in [4] (methoprene with rotifers (A+R+M, 30 mg/L), 12 days, rotifers only 0.47 AU, control 0.96 AU). The “24-hr LC50” value in [5] is recorded as “lower methoprene concentration utilized in this project”. In data set [6], the “toxicity to humans or algae” value was “practically non-toxic”. Moreover, the “live rotifers in 30-μL samples” value in [7] (A+R+2M: 62 mg/L methoprene) is recorded as “zero”; in data set [7] (A+R+M: 30 mg/L methoprene, A+R group 8.7 per 30 μL), “zero”. Also, the “growth reduction of Chlorella sp.” value in data set [8] was “No growth reduction”. Also, the effect on rotifers entry in data set [9] is “eliminates rotifers”. For the same compound, in [2], the harm to rotifers result is “significantly harmful to rotifers”. For the same compound, the degradation in sunlight entry in [10] is “rapidly degrades in sunlight”. Moreover, the “mean optical density on day 12 compared with control group” value in data set [1] was “not significantly different”. The “inhibition of algal growth” value in [1] is recorded as “Neither methoprene, resmethrin, nor acetone, when applied without rotifers, was found to inhibit algal growth”; in data set [1] (listed as Methoprene), “not found to inhibit algal growth”. The “mean optical density at day 12 compared with control” value in data set [1] (group 5M+R: 5 mg/L methoprene, rotifers) is listed as “significantly lower”.

As for `CC1=CCC2CC1C2(C)C` (stereo not drawn) [alpha-pinene], the “control of Daphnia magna in the aquaculture” value in data set [11] was “controlled”. Also, in data set [12], the “control of rotifers in the aquaculture” value was “controlled”.

Source of the values: patent US8216825B2, “Aquaculture biocide methods and compositions” (priority 2010, dated 2012).
